Assay results from US20150225404A1, “PYRIDINE DERIVATIVE AND MEDICINE” (NIPPON SHINYAKU CO., LTD., priority 2012, published 2015).
Structures can show the parent of a compound that is named as a salt.

biological target: T1, human mGluR5 (Homo sapiens, UniProt P41594); test: Experiment for receptor function of mGluR5 (Ca2+-dependent fluorescence, FLIPR, CHO-K1 cells stably expressing human mGluR5); type: cell-based; details: L-glutamic acid 10 μM, Fluo-4 fluorescence
T1 construct: expressed in transfected cells
T1 sequence (P41594 21-1212): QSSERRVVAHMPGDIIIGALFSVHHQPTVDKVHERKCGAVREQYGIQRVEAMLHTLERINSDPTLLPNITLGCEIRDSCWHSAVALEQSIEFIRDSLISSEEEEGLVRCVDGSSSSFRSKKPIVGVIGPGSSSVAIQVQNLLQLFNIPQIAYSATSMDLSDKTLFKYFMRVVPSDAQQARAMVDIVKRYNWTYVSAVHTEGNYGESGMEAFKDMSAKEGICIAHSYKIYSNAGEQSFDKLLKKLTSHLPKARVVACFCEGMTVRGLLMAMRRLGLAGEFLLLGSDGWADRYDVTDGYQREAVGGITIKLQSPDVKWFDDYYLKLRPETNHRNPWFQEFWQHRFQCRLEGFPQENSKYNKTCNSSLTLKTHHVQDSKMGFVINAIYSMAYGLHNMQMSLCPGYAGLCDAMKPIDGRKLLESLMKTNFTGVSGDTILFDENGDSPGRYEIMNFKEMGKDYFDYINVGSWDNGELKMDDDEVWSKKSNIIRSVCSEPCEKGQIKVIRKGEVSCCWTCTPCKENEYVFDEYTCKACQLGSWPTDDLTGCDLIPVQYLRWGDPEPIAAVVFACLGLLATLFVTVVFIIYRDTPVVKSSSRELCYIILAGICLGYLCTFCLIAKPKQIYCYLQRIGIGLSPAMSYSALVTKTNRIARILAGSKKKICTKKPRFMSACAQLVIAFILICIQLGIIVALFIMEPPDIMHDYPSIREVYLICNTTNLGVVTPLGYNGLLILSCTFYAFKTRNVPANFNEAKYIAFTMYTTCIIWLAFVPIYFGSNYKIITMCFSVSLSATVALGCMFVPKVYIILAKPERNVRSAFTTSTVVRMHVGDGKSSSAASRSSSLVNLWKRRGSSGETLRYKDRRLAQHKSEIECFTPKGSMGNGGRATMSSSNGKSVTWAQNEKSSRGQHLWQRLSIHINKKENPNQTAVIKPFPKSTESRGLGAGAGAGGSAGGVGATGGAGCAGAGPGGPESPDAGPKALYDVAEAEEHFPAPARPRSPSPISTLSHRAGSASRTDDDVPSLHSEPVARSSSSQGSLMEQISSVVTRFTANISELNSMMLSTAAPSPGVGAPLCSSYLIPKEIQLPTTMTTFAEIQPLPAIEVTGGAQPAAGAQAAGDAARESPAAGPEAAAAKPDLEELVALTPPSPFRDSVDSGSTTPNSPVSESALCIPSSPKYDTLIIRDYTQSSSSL
Experimental: Stable expression cells in which the human mGluR5 gene had been introduced into a Chinese hamster ovary cell (CHO-K1) were used for evaluation. The cells were suspended in a growth medium (MEM-α (D8042, available from Sigma) containing 10% inactivated FBS (Cat. No. 171012, available from CCB) and 2 mM glutamax (Cat. No. 35050, available from GIBCO)) and seeded on a black clear-bottom 96-well plate at 100,000 cells per well. One day after seeding, the medium was replaced by a medium (Hanks' balanced salt solution (HBSS buffer solution) (20 mM HEPES, 2.5 mM probencide (165-15472, available from Wako Pure Chemical Industries, Ltd.), and 10×HBSS (14065-056, available from Gibco) diluted 10 times, pH 7.4)) containing a calcium-sensitive dye Fluo-4 AM at a final concentration of […] (F312, available from Dojindo Laboratories) and Pluronic F-127 at a final concentration of 0.0145% (P-2443, available from Sigma), followed by incubation at 37° C. for one hour, thereby loading Fluo-4 AM into the cells.
Subsequently, the cells were washed twice with an HBSS buffer solution, to which was subsequently added the same buffer solution. Twenty minutes thereafter, the plate was transferred into a fluorescence screening system (FLIPR TETRA, available from Molecular Devices, LLC) and measured for a Ca^2+-dependent fluorescence change in the cells.
First of all, a fluorescence baseline was measured, and thereafter, fluorescence measurement was performed for 2 minutes while adding a test substance, an excessive amount of 6-methyl-2-(phenylethynyl)pyridine (hereinafter referred to as “MPEP”) (final concentration: 10 μM), or the medium. Thereafter, fluorescence measurement was carried out for one minute while adding L-glutamic acid (final concentration: 10 μM).
While taking a fluorescence intensity caused by L-glutamic acid as 100% and a fluorescence intensity caused by L-glutamic acid in the presence of MPEP as 0%, respectively, function inhibitory activity against human mGluR5 was evaluated from the fluorescence intensity caused by L-glutamic acid in the presence of the test substance at each concentration, and an IC50 value was estimated according to a logistic equation (SAS System).

Going from `c1ccc(COc2cc(-c3cccnc3)c3c(n2)CCC3)nc1` [Example 1, 4-(Pyridin-3-yl)-2-(pyridin-2-ylmethoxy)-6,7-dihydro-5H-cyclopenta[b]pyridine dihydrochloride] to `Fc1cccc(-c2cc(OCc3ccccn3)nc3c2CCC3)c1` [Example 58, 4-(3-Fluorophenyl)-2-(pyridin-2-ylmethoxy)-6,7-dihydro-5H-cyclopenta[b]pyridine], the IC50 falls from 144 nM to 55.6 nM (2.6-fold). The second is the more potent here.

Going from `N#Cc1ccc(-c2cc(OCc3ccccn3)nc3c2CCC3)cn1` [Example 4, 5-[2-(Pyridin-2-ylmethoxy)-6,7-dihydro-5H-cyclopenta[b]pyridin-4-yl]pyridine-2-carbonitrile hydrochloride] to `N#Cc1ncc(-c2cc(OCc3ccccn3)nc3c2CCC3)cn1` [Example 37, 5-[2-(Pyridin-2-ylmethoxy)-6,7-dihydro-5H-cyclopenta[b]pyridin-4-yl]pyrimidine-2-carbonitrile hydrochloride], the IC50 falls from 147 nM to 79 nM (1.9-fold).

Going from `Fc1ccc(COc2cc(-c3cncnc3)c3c(n2)CCC3)c(F)c1` [Example 18, 2-[(2,4-Difluorobenzyl)oxy]-4-(pyrimidin-5-yl)-6,7-dihydro-5H-cyclopenta[b]pyridine] to `Fc1cnccc1COc1cc(-c2cncnc2)c2c(n1)CCC2` [Example 32, 2-[(3-Fluoropyridin-4-yl)methoxy]-4-(pyrimidin-5-yl)-6,7-dihydro-5H-cyclopenta[b]pyridine], the IC50 falls from 105 nM to 31 nM (3.4-fold). The second is the more potent here.

Going from `Fc1cccc(COc2cc(-c3cncnc3)c3c(n2)CCC3)n1` [Example 24, 2-[(6-Fluoropyridin-2-yl)methoxy]-4-(pyrimidin-5-yl)-6,7-dihydro-5H-cyclopenta[b]pyridine] to `Cc1cccc(COc2cc(-c3cncnc3)c3c(n2)CCC3)n1` [Example 28, 2-[(6-Methylpyridin-2-yl)methoxy]-4-(pyrimidin-5-yl)-6,7-dihydro-5H-cyclopenta[b]pyridine], the IC50 rises from 36 nM to 104 nM (2.9-fold).

`Fc1ccc(COc2cc(-c3cncnc3)c3c(n2)CCC3)nc1` [Example 25, 2-[(5-Fluoropyridin-2-yl)methoxy]-4-(pyrimidin-5-yl)-6,7-dihydro-5H-cyclopenta[b]pyridine] and `Cc1ncc(-c2cc(OCc3ccc(F)cn3)nc3c2CCC3)cn1` [Example 40, 2-[(5-Fluoropyridin-2-yl)methoxy]-4-(2-methylpyrimidin-5-yl)-6,7-dihydro-5H-cyclopenta[b]pyridine hydrochloride] are within 1.5-fold of each other in IC50: 60.6 nM for the first, 78 nM for the second.

Going from `c1csc(COc2cc(-c3cncnc3)c3c(n2)CCC3)c1` [Example 34, 4-(Pyrimidin-5-yl)-2-(thiophen-2-ylmethoxy)-6,7-dihydro-5H-cyclopenta[b]pyridine] to `Clc1ccc(COc2cc(-c3cncnc3)c3c(n2)CCC3)s1` [Example 35, 2-[(5-Chlorothiophen-2-yl)methoxy]-4-(pyrimidin-5-yl)-6,7-dihydro-5H-cyclopenta[b]pyridine], the IC50 rises from 15 nM to 58 nM (3.9-fold).

Going from `Cc1ncc(-c2cc(OCc3ccccc3)nc3c2CCC3)cn1` [Example 38, 2-(Benzyloxy)-4-(2-methylpyrimidin-5-yl)-6,7-dihydro-5H-cyclopenta[b]pyridine] to `Cc1ncc(-c2cc(OCc3cccc(F)n3)nc3c2CCC3)cn1` [Example 39, 2-[(6-Fluoropyridin-2-yl)methoxy]-4-(2-methylpyrimidin-5-yl)-6,7-dihydro-5H-cyclopenta[b]pyridine], the IC50 rises from 45 nM to 122 nM (2.7-fold). The first is the more potent here.

Going from `Cc1ncc(-c2cc(OCc3ncccc3F)nc3c2CCC3)cn1` [Example 41, 2-[(3-Fluoropyridin-2-yl)methoxy]-4-(2-methylpyrimidin-5-yl)-6,7-dihydro-5H-cyclopenta[b]pyridine] to `N#Cc1ncc(-c2cc(OCc3ncccc3F)nc3c2CCC3)cn1` [Example 50, 5-{2-[(3-Fluoropyridin-2-yl)methoxy]-6,7-dihydro-5H-cyclopenta[b]pyridin-4-yl}pyrimidine-2-carbonitrile], the IC50 rises from 30 nM to 176 nM (5.9-fold). The first is the more potent here.

First: N#Cc1ncc(-c2cc(OCc3ncc(F)cc3F)nc3c2CCC3)cn1 [Example 44, 5-{2-[(3,5-Difluoropyridin-2-yl)methoxy]-6,7-dihydro-5H-cyclopenta[b]pyridin-4-yl}pyrimidine-2-carbonitrile]
Second: N#Cc1ncc(-c2cc(OCc3ccc(F)cn3)nc3c2CCC3)cn1 [Example 49, 5-{2-[(5-Fluoropyridin-2-yl)methoxy]-6,7-dihydro-5H-cyclopenta[b]pyridin-4-yl}pyrimidine-2-carbonitrile]
The IC50 of the first is 3-fold higher: 166 nM for the first, 55 nM for the second.

Going from `N#Cc1ncc(-c2cc(OCc3cccc(F)n3)nc3c2CCC3)cn1` [Example 48, 5-{2-[(6-Fluoropyridin-2-yl)methoxy]-6,7-dihydro-5H-cyclopenta[b]pyridin-4-yl}pyrimidine-2-carbonitrile] to `N#Cc1cccc(COc2cc(-c3cncc(CO)n3)c3c(n2)CCC3)n1` [Example 56, 6-[({4-[6-(Hydroxymethyl)pyrazin-2-yl]-6,7-dihydro-5H-cyclopenta[b]pyridin-2-yl}oxy)methyl]pyridine-2-carbonitrile], the IC50 rises from 72 nM to 495 nM (6.9-fold). The first is the more potent here.

First: c1ccc(COc2cc(-c3cnccn3)c3c(n2)CCC3)nc1 [Example 53, 4-(Pyrazin-2-yl)-2-(pyridin-2-ylmethoxy)-6,7-dihydro-5H-cyclopenta[b]pyridine hydrochloride]
Second: N#Cc1cncc(-c2cc(OCc3ccccn3)nc3c2CCC3)n1 [Example 54, 6-[2-(Pyridin-2-ylmethoxy)-6,7-dihydro-5H-cyclopenta[b]pyridin-4-yl]pyrazine-2-carbonitrile hydrochloride]
The IC50 of the first is 1.8-fold lower: 11.4 nM for the first, 20 nM for the second.

First: CC(C)(O)c1cncc(-c2cc(OCc3ccccn3)nc3c2CCC3)n1 [Example 55, 2-{6-[2-(Pyridin-2-ylmethoxy)-6,7-dihydro-5H-cyclopenta[b]pyridin-4-yl]pyrazin-2-yl}propan-2-ol]
Second: Fc1cc(-c2cc(OCc3ccccn3)nc3c2CCC3)ccn1 [Example 73, 4-(2-Fluoropyridin-4-yl)-2-(pyridin-2-ylmethoxy)-6,7-dihydro-5H-cyclopenta[b]pyridine]
The IC50 of the first is 21-fold higher: 348 nM for the first, 16.2 nM for the second.

Compared with `O=[N+]([O-])c1cccc(-c2cc(OCc3ccccn3)nc3c2CCC3)c1` [Example 63, 4-(3-Nitrophenyl)-2-(pyridin-2-ylmethoxy)-6,7-dihydro-5H-cyclopenta[b]pyridine], `Cc1ccc(-c2cc(OCc3ccccn3)nc3c2CCC3)cc1F` [Example 64, 4-(3-Fluoro-4-methylphenyl)-2-(pyridin-2-ylmethoxy)-6,7-dihydro-5H-cyclopenta[b]pyridine] is 5-fold higher in IC50: 59.9 nM for the first, 297 nM for the second.

`N#Cc1ccc(-c2cc(OCc3ccccn3)nc3c2CCC3)cc1F` [Example 66, 2-Fluoro-4-[2-(pyridin-2-ylmethoxy)-6,7-dihydro-5H-cyclopenta[b]pyridin-4-yl]benzonitrile] and `Oc1cc(F)cc(-c2cc(OCc3ccccn3)nc3c2CCC3)c1` [Example 68, 3-Fluoro-5-[2-(pyridin-2-ylmethoxy)-6,7-dihydro-5H-cyclopenta[b]pyridin-4-yl]phenol] are within 1.5-fold of each other in IC50: 108 nM for the first, 92 nM for the second.

Compared with `CS(=O)(=O)Oc1cc(F)cc(-c2cc(OCc3ccccn3)nc3c2CCC3)c1` [Example 69, 3-Fluoro-5-[2-(pyridin-2-ylmethoxy)-6,7-dihydro-5H-cyclopenta[b]pyridin-4-yl]phenyl methanesulfonate], `Cc1cccc(COc2cc(-c3cccnc3)c3c(n2)CCCC3)n1` [Example 83, 2-[(6-Methylpyridin-2-yl)methoxy]-4-(pyridin-3-yl)-5,6,7,8-tetrahydroquinoline] is 5.8-fold lower in IC50: 94 nM for the first, 16.2 nM for the second. The second is the more potent here.
